# Results from patent US20240123022A1, “A STABLE ANTI-ANGIOGENIC AND ANTI-INFLAMMATORY PHARMACEUTICAL FORMULATION AND PHARMACEUTICAL COMBINATION FOR TREATMENT AND PREVENTION OF PSORIASIS” (priority 2021, published 2024).
# Like-named read-outs stand apart in the source and are kept apart here.
# Tests used:
# Caspase 3 = assay: Caspase-3 activation assay in HaCaT cells; format: cell-based, human; conditions: 100 to 5000 μg/mL, 24 h and 48 h, vs untreated cells
# Source text: The study aimed to determine action of IS217 on the death mediator Caspase 3 which acts as dominant regulator during cell death induction. HaCaT cells were used as test system and in house validation assay was done by using Anthralin dissolved in DMSO (positive control).
# [1] = test system: IMQ induced psoriasis mouse model; assay: Proof of concept efficacy study, SC and topical route, IMQ-induced psoriasis mice model; format: in vivo, BALB/c mice
# Method: The study objective was to validate the efficacy of IS 217 through Parental route and to study the efficacy of 1% IS 217 Cream Formulation through topically and to fix dose levels and treatment mode for further proof of concept studies and included with SC dose ([…] and 1.2 mg/kg) as proof of concept studies.
# The study was conducted to evaluate efficacy of test compound IS217 (topical and subcutaneous route) on IMQ induced psoriasis mouse model.
# Test items: IS217 cream formulation (topical treatment) and IS217 powder vials (subcutaneous treatment) along with placebo were provided.
# Standard Drugs: 1.0.01% Batamethasone cream (Betnovate®); 100 mg/4 ml bevacuzimab (Avastin®)
# Study animals: 8-9 weeks old male BALB/c mice were used for the study.
# Treatment period was from day 1 to day 14. IMQ cream application: 5% IMQ cream, 65 mg was applied on shaved back and 5 mg on each ear during study period. Treatment regimen: treatment to be given twice a day-test drug high dose. 2-hour difference was taken between application of IMQ and application of test drug. 8-hour difference was taken between second application of test drug.
# Required quantity of IS217 compounds was weighed on Sartorius weighing balance. Weighed amount was dissolved in 10% Propylene glycol.
# • IMQ (Imigod, Glenmark pharmaceuticals) was weighed every day prior to application. • 65 mg of 5% IMQ cream was applied on shaved back of animals with help of spatula. 5 mg IMQ cream was applied on each ear of mouse. • IMQ application was done every day for 14 days and on day 15 studies were terminated. (Except for group 4 and group 5) • Group 4 was terminated on day 17 (post 14 days of treatment) • Group 5 was terminated on day 21 (post 14 days of treatment) • Group 4 and 5 received similar duration of test formulation as per group 3. • Group 4 received 17 days IMQ application, group 5 received 20 days IMQ application.
# • Treatment to all the groups were done two hours post IMQ cream application • Formulation for topical application were weighted daily on Sartorius balance • Formulation for SC treatment was prepared fresh every day as per procedure mentioned above. • Standard drug Betamethasone was weighed daily and applied topically to respective treatment group • Bevacizumab was prepared fresh at the time of dosing. • All the treatments were given as per study design
# human plasma proteins = assay: in vitro
# Method: Test item at concentration of about 100 μg/ml was incubated with human plasma at 37° C. in water bath for about 1 hour. About 500 μL of test solution was transferred to ultrafiltration devices and centrifuged for about 15 minutes at about 13000 rpm and at 37° C. and analyzed using HPLC method.
# [2] = test system: TNF-α, IFN-γ, TARC, TSLP, IL-6, IL-8, IL-23, IL-17A and IL-1-0 levels; assay: Cytokine levels in LPS stimulated RAW264.7 cells and HaCaT cells; format: cell-based; conditions: LPS stimulated RAW264.7 and HaCaT cells, vs untreated controls
# Source text: In pathogenesis of psoriasis, angiogenesis and tyrosine kinases involves cell proliferation, cell migration, DNA Fragmentation and tube formation in endothelial cells. […] RAW264.7 cells (Murine macrophage cell line) which is stimulated with LPS and in HaCaT cells human keratinocytes (HaCaT) TNF-α, IFN-γ, TARC, TSLP, IL-6, IL-8, IL-23, IL-17A and IL-1-0 levels were overexpressed in disease pathogenesis, but when treated with IS217, all the above mentioned cytokines levels are decreased when compared with untreated controls.
# HUVEC cells = format: cell-based, human; conditions: 100-1000 μg/ml
# Method: The study was performed to determine anti-angiogenic effect of IS217 in HUVEC cell line by assessing anti-proliferative effects of test item. Here XTT assay was used to determine the cell viability in test cells. HUVEC cells were treated with the test item IS217 (100-1000 μg/ml) and bevacizumab (1 mg/ml) concentrations was used as positive controls.
# MAPK1 (MEK 1) = assay: Z′LYTE activity assay, tyrosine kinases; format: biochemical; conditions: 10 μg/ml-250 μg/ml
# Source text: (§1) Tyrosine kinases play key role in pathogenesis of psoriasis IS217 was investigated for possible inhibition of various tyrosine kinase, which play crucial role in pathogenesis of psoriasis. The method employed to detect the effect was Z′LYTE activity assay.
# other kinases = assay: Z′LYTE activity assay, tyrosine kinases; format: biochemical; conditions: low concentration tested of 10 μg/ml
# Source text: as §1
# JAK-STAT pathway = assay: Z′LYTE activity assay, tyrosine kinases; format: biochemical
# Source text: as §1
substance,measurement,setting,value
"H-FAKKFAKKFK-OH [IS217, H-Phe-Ala-Lys-Lys-Phe-Ala-Lys-Lys-Phe-Lys-OH]",activation of Caspase 3,Caspase 3,did not lead to activation
same,only epidermal hyperplasia (skin),[1]; 0.6 mg/kg SC,reduced
same,"IL-17 level in ear, skin, and serum matrix",[1]; 0.6 mg/kg and 1.2 mg/kg SC,significant decrease
same,TNF-α in ear homogenates samples,[1]; 0.6 mg/kg and 1.2 mg/kg SC,decreased
same,ear thickness,[1]; 0.6 mg/kg and 1.2 mg/kg SC,significantly decreased
same,overall efficacy versus the standard drug (Bevacizumab),[1]; 0.6 mg/kg and 1.2 mg/kg SC,comparable
same,"psoriatic score, ear weight",[1]; 0.6 mg/kg and 1.2 mg/kg SC,significant decrease
same,"scaling, erythema and skin thickness",[1]; 0.6 mg/kg and 1.2 mg/kg SC,decrease
same,"Epidermal hyperplasia, parakeratosis, leukocyte infiltration","[1]; 0.6 mg/kg and 1.2 mg/kg, vs vehicle",significantly decreased
same,"epidermal hyperplasia, parakeratosis in skin",[1]; 1.2 mg/kg SC,reduced
same,spleen weight,[1]; SC administration,Decrease
same,"fraction unbound at 1 hour, 100 μg/ml",human plasma proteins,0.466
same,"fraction unbound at 1 hour, 100 μg/ml",human plasma proteins; free fraction,0.466 ± 0.03
same,"cytokines levels (TNF-α, IFN-γ, TARC, TSLP, IL-6, IL-8, IL-23, IL-17A, IL-1-0)",[2],decreased
same,percentage inhibition of FBS induced proliferation of HUVEC cells,HUVEC cells,effective upto 1000 μg/ml only
same,inhibition of MAPK1 (MEK 1),MAPK1 (MEK 1),good inhibition
same,inhibition of other kinases,other kinases,Moderate to low inhibition
same,inhibition of JAK-STAT pathway,JAK-STAT pathway,No inhibition
